# Measured values: patent publication US20230406885A1, “CYCLIC PEPTIDES FOR TRAPPING INTERLEUKIN-1 BETA” (MERCK SHARP & DOHME LLC, priority 2022, published 2023)
# *1 amine or outer side, *2 acyl side, *3 side chain or, on linkers, in order; H or OH if unused. Where a SMILES comes first, the peptide text is derived from it. [ ]: non-standard residue; d: D form. Trp(4-Cl)(βS-Me) = C[C@@H](c1c[nH]c2cccc(Cl)c12)[C@H](N)C(=O)O; Bip(4'-COOH) = N[C@@H](Cc1ccc(-c2ccc(C(=O)O)cc2)cc1)C(=O)O; X8 = O=C([C@H](CCc1cccc(C(F)(F)F)c1)N[*:1])[*:2]; Phe(4-COOH) = N[C@@H](Cc1ccc(C(=O)O)cc1)C(=O)O; X10 = O=C([C@H](CC1CCC(F)(F)CC1)N[*:1])[*:2]; Phe(4-NH2) = Nc1ccc(C[C@H](N)C(=O)O)cc1; Pro(4R-NH2) = N[C@H]1CN[C@H](C(=O)O)C1; X7 = O=C([C@H](CCN1CCOCC1)N[*:1])[*:2]; 1Nal = N[C@@H](Cc1cccc2ccccc12)C(=O)O; AEF = NCCOc1ccc(C[C@H](N)C(=O)O)cc1; hTyr = N[C@@H](CCc1ccc(O)cc1)C(=O)O; 4Pal = N[C@@H](Cc1ccncc1)C(=O)O; dDab = NCC[C@@H](N)C(=O)O; Orn = NCCC[C@H](N)C(=O)O; dNMeA = CN[C@H](C)C(=O)O; Dab = NCC[C@H](N)C(=O)O; Nva = CCC[C@H](N)C(=O)O; Aib = CC(C)(N)C(=O)O
# Biological target: T1, Recombinant human IL-1β (Homo sapiens, UniProt P01584)
# T1 construct: purchased BioLegend 579404
# T1 sequence (P01584 117-269): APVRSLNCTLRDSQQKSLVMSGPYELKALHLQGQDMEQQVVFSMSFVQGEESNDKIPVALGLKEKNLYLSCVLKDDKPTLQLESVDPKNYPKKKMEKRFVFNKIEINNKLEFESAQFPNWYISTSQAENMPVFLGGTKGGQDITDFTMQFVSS
# Assay: IL-6 assay in MRC5 cells: inhibition of IL-1β induced IL-6 secretion (AlphaLISA)
# Type: cell-based
# Settings: inhibition of IL-1β induced IL-6 secretion in MRC5 cells; read-out: MRC5 IC50
# In short: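 IL-1β at 2×EC80 in seeding medium (EMEM, 0.025% BSA) preincubated 1 h at ambient temperature with compound, then 3000 MRC5 cells/well added and incubated overnight at 37 °C, 5% CO2. IL-6 in conditioned medium quantified by AlphaLISA; IC50 from 4-parameter logistic fit.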
row,Compound,IC50
1,CC(=O)NCCOc1ccc(C[C@@H]2NC(=O)[C@H](CCc3ccc(O)cc3)NC(=O)[C@@H](C)NC(=O)[C@H](CC(C)C)NC(=O)[C@H](Cc3cccc4ccccc34)NC(=O)[C@H](Cc3ccc(-c4ccc(C(=O)O)cc4)cc3)NC(=O)CNC(=O)[C@@H](C)N(C)C(=O)[C@H](CC(=O)O)NC(=O)[C@H]([C@@H](C)c3c[nH]c4cccc(Cl)c34)NC(=O)[C@@H]3C[C@@H](N)CN3C(=O)CNC(=O)[C@H](Cc3ccc(C(=O)O)cc3)NC(=O)[C@H](Cc3c[nH]c4ccccc34)NC2=O)cc1 [Example 131] (cyclo([AEF](Ac)W[Phe(4-COOH)]G[Pro(4R-NH2)][Trp(4-Cl)(βS-Me)]D[dNMeA]G[Bip(4'-COOH)][1Nal]L[dA][hTyr])),0.0498 nM
2,CC(=O)NCCOc1ccc(C[C@@H]2NC(=O)CNC(=O)C(C)(C)NC(=O)[C@H](CCCN)NC(=O)[C@H](Cc3cccc4ccccc34)NC(=O)[C@H](Cc3ccc(-c4ccc(C(=O)O)cc4)cc3)NC(=O)CNC(=O)[C@@H](C)N(C)C(=O)[C@H](CC(=O)O)NC(=O)[C@H]([C@@H](C)c3c[nH]c4cccc(Cl)c34)NC(=O)[C@@H]3C[C@@H](N)CN3C(=O)CNC(=O)[C@H](Cc3ccc(C(=O)O)cc3)NC(=O)[C@H](Cc3c[nH]c4ccccc34)NC2=O)cc1 [Example 132] (cyclo([AEF](Ac)W[Phe(4-COOH)]G[Pro(4R-NH2)][Trp(4-Cl)(βS-Me)]D[dNMeA]G[Bip(4'-COOH)][1Nal][Orn][Aib]G)),0.37 nM
3,CC(=O)NCCOc1ccc(C[C@@H]2NC(=O)[C@H](Cc3ccc(N)cc3)NC(=O)[C@@H](C)NC(=O)[C@H](CO)NC(=O)[C@H](Cc3cccc4ccccc34)NC(=O)[C@H](Cc3ccc(-c4ccc(C(=O)O)cc4)cc3)NC(=O)CNC(=O)[C@@H](C)N(C)C(=O)[C@H](CC(=O)O)NC(=O)[C@H]([C@@H](C)c3c[nH]c4cccc(Cl)c34)NC(=O)[C@@H]3C[C@@H](N)CN3C(=O)CNC(=O)[C@H](Cc3ccc(C(=O)O)cc3)NC(=O)[C@H](Cc3c[nH]c4ccccc34)NC2=O)cc1 [Example 133] (cyclo([AEF](Ac)W[Phe(4-COOH)]G[Pro(4R-NH2)][Trp(4-Cl)(βS-Me)]D[dNMeA]G[Bip(4'-COOH)][1Nal]S[dA][Phe(4-NH2)])),0.766 nM
4,CC(=O)NCCOc1ccc(C[C@@H]2NC(=O)[C@H](CCc3ccc(O)cc3)NC(=O)[C@@H](C)NC(=O)[C@H](CCN)NC(=O)[C@H](Cc3ccncc3)NC(=O)[C@H](Cc3ccc(-c4ccc(C(=O)O)cc4)cc3)NC(=O)CNC(=O)[C@@H](C)N(C)C(=O)[C@H](CC(=O)O)NC(=O)[C@H]([C@@H](C)c3c[nH]c4cccc(Cl)c34)NC(=O)[C@@H]3C[C@@H](N)CN3C(=O)CNC(=O)[C@H](Cc3ccc(C(=O)O)cc3)NC(=O)[C@H](Cc3c[nH]c4ccccc34)NC2=O)cc1 [Example 134] (cyclo([AEF](Ac)W[Phe(4-COOH)]G[Pro(4R-NH2)][Trp(4-Cl)(βS-Me)]D[dNMeA]G[Bip(4'-COOH)][4Pal][Dab][dA][hTyr])),0.379 nM
5,CC(=O)NCCOc1ccc(C[C@@H]2NC(=O)[C@H](CCc3ccc(O)cc3)NC(=O)[C@@H](C)NC(=O)[C@H](CC(C)C)NC(=O)[C@H](Cc3ccncc3)NC(=O)[C@H](Cc3ccc(-c4ccc(C(=O)O)cc4)cc3)NC(=O)CNC(=O)[C@@H](C)N(C)C(=O)[C@H](CC(=O)O)NC(=O)[C@H]([C@@H](C)c3c[nH]c4cccc(Cl)c34)NC(=O)[C@@H]3C[C@@H](N)CN3C(=O)CNC(=O)[C@H](Cc3ccc(C(=O)O)cc3)NC(=O)[C@H](Cc3c[nH]c4ccccc34)NC2=O)cc1 [Example 135] (cyclo([AEF](Ac)W[Phe(4-COOH)]G[Pro(4R-NH2)][Trp(4-Cl)(βS-Me)]D[dNMeA]G[Bip(4'-COOH)][4Pal]L[dA][hTyr])),0.31 nM
6,CCC[C@@H]1NC(=O)[C@H](Cc2ccncc2)NC(=O)[C@H](Cc2ccc(-c3ccc(C(=O)O)cc3)cc2)NC(=O)CNC(=O)[C@@H](C)N(C)C(=O)[C@H](CC(=O)O)NC(=O)[C@H]([C@@H](C)c2c[nH]c3cccc(Cl)c23)NC(=O)[C@@H]2C[C@@H](N)CN2C(=O)CNC(=O)[C@H](Cc2ccc(C(=O)O)cc2)NC(=O)[C@H](Cc2c[nH]c3ccccc23)NC(=O)[C@H](Cc2ccc(OCCNC(C)=O)cc2)NC(=O)[C@H](CC2CCC(F)(F)CC2)NC(=O)[C@@H](C)NC1=O [Example 136] (cyclo([AEF](Ac)W[Phe(4-COOH)]G[Pro(4R-NH2)][Trp(4-Cl)(βS-Me)]D[dNMeA]G[Bip(4'-COOH)][4Pal][Nva][dA][X10])),0.396 nM
7,CC(=O)NCCOc1ccc(C[C@@H]2NC(=O)[C@H](CCc3cccc(C(F)(F)F)c3)NC(=O)[C@@H](C)NC(=O)[C@H](CC(C)C)NC(=O)[C@H](CCCCN)NC(=O)[C@H](Cc3ccc(-c4ccc(C(=O)O)cc4)cc3)NC(=O)CNC(=O)[C@@H](C)N(C)C(=O)[C@H](CC(=O)O)NC(=O)[C@H]([C@@H](C)c3c[nH]c4cccc(Cl)c34)NC(=O)[C@@H]3C[C@@H](N)CN3C(=O)CNC(=O)[C@H](Cc3ccc(C(=O)O)cc3)NC(=O)[C@H](Cc3c[nH]c4ccccc34)NC2=O)cc1 [Example 137] (cyclo([AEF](Ac)W[Phe(4-COOH)]G[Pro(4R-NH2)][Trp(4-Cl)(βS-Me)]D[dNMeA]G[Bip(4'-COOH)]KL[dA][X8])),0.0938 nM
8,CC(=O)NCCOc1ccc(C[C@@H]2NC(=O)[C@H](CCc3ccc(O)cc3)NC(=O)[C@@H](C)NC(=O)[C@H](CO)NC(=O)[C@H](CCCCN)NC(=O)[C@H](Cc3ccc(-c4ccc(C(=O)O)cc4)cc3)NC(=O)CNC(=O)[C@@H](C)N(C)C(=O)[C@H](CC(=O)O)NC(=O)[C@H]([C@@H](C)c3c[nH]c4cccc(Cl)c34)NC(=O)[C@@H]3C[C@@H](N)CN3C(=O)CNC(=O)[C@H](Cc3ccc(C(=O)O)cc3)NC(=O)[C@H](Cc3c[nH]c4ccccc34)NC2=O)cc1 [Example 138] (cyclo([AEF](Ac)W[Phe(4-COOH)]G[Pro(4R-NH2)][Trp(4-Cl)(βS-Me)]D[dNMeA]G[Bip(4'-COOH)]KS[dA][hTyr])),0.214 nM
9,CC(=O)NCCOc1ccc(C[C@@H]2NC(=O)[C@H](CCc3ccc(O)cc3)NC(=O)[C@@H](CCN)NC(=O)[C@H](CO)NC(=O)[C@H](CCCCN)NC(=O)[C@H](Cc3ccc(-c4ccc(C(=O)O)cc4)cc3)NC(=O)CNC(=O)[C@@H](C)N(C)C(=O)[C@H](CC(=O)O)NC(=O)[C@H]([C@@H](C)c3c[nH]c4cccc(Cl)c34)NC(=O)[C@@H]3C[C@@H](N)CN3C(=O)CNC(=O)[C@H](Cc3ccc(C(=O)O)cc3)NC(=O)[C@H](Cc3c[nH]c4ccccc34)NC2=O)cc1 [Example 139] (cyclo([AEF](Ac)W[Phe(4-COOH)]G[Pro(4R-NH2)][Trp(4-Cl)(βS-Me)]D[dNMeA]G[Bip(4'-COOH)]KS[dDab][hTyr])),0.133 nM
10,CC(=O)NCCOc1ccc(C[C@@H]2NC(=O)CNC(=O)[C@@H](C)NC(=O)[C@H](CCN3CCOCC3)NC(=O)[C@H](Cc3c[nH]c4ccccc34)NC(=O)[C@H](Cc3ccc(-c4ccc(C(=O)O)cc4)cc3)NC(=O)CNC(=O)[C@@H](C)N(C)C(=O)[C@H](CC(=O)O)NC(=O)[C@H]([C@@H](C)c3c[nH]c4cccc(Cl)c34)NC(=O)[C@@H]3C[C@@H](N)CN3C(=O)CNC(=O)[C@H](Cc3ccc(C(=O)O)cc3)NC(=O)[C@H](Cc3c[nH]c4ccccc34)NC2=O)cc1 [Example 140] (cyclo([AEF](Ac)W[Phe(4-COOH)]G[Pro(4R-NH2)][Trp(4-Cl)(βS-Me)]D[dNMeA]G[Bip(4'-COOH)]W[X7][dA]G)),0.515 nM
